Measured values reported in US11286278B2, “DPEP-1 binding agents and methods of use” (Arch Biopartners, Inc., priority 2018, dated 2022).
One block for each sequence: values may come before it.

Columns and labels:
DPEP1 [1] = target: T1, DPEP1 (Homo sapiens, UniProt P16444); experiment: Phage hit binding to DPEP1 transfected Cos 1 cells; design: expressed in transfected cells; host or cells: Cos-1; conditions: 10^8 pfu test phage, backscreen DPEP1 vs DPEP2
T1 sequence (P16444 17-385): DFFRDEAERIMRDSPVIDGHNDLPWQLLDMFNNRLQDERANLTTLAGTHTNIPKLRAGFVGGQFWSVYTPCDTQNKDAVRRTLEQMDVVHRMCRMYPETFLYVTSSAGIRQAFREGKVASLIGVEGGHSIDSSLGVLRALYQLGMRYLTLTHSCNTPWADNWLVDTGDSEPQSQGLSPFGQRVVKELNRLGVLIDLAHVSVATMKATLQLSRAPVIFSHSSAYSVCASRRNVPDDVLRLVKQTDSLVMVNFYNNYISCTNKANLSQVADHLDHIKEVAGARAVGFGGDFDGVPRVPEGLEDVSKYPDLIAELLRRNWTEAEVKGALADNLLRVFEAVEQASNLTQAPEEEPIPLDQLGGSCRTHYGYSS
Experimental: The Ph.D.-12 library was first subtracted 3× against DPEP2 (Creative Biomart; DPEP2-8611H) linked to agarose beads (10 uL of DPEP-agarose in 100 uL Luria broth and 4.5×10^9 pfu of Ph.D.-12 library), wherein the phage remaining in the supernatant was retained, and those that stuck to the subtraction beads were discarded. Second, the library was selected against DPEP1-agarose beads, wherein the phage remaining in the supernatant were discarded and those binding to DPEP1-agarose pellet were retained. The pellet was washed 3× in PBS, then transferred to phage host bacterial culture (ER 2738) to amplify the bound phage, which were then precipitated as per manufacturer's protocol. The recovered phage were then used to repeat the subtraction and selection steps. […] Each plaque was amplified separately in liquid bacterial host culture. […] DNA inserts were translated to the expected protein and sorted to assess the number of repeating sequences. […]
In FIG. 19B, Cos1 cells were transiently transfected with plasmids corresponding to human DPEP1 or DPEP2 (Lipofectamine 2000) 24 hrs prior to plating on collagen-coated (PureCol; Type I collagen from bovine tendon) coverslips. One day later cells were incubated with 10^8 pfu test phage, which were then detected by anti-M13 rabbit serum (in house) with anti-rabbit Alexa 568 secondary. […]

[2] = test system: LPS activated endothelial cells (HLMVEC); experiment: Static neutrophil adhesion assay to LPS activated endothelial cells (HLMVEC); format: cell-based; conditions: human neutrophils, peptides at 100 uM or antibody at 13 ug/mL, LPS 1 ug/mL
Experimental: (§1) In the top panel, 96-well nickel-coated plates were coated with nothing or his-tagged recombinant human DPEP1 (9 pmol/well in PBS, incubated for 1 hr at room temp), washed out 3× with PBS +0.05% Tween 20, and blocked for 1 hr at room temp with cell culture media (Cell Applications Inc. Cat#111-500). Freshly isolated human neutrophils were added to the wells at 5×10^4/mL, 100 uL volume, with the indicated peptides at 0.45uM. After 30 minutes at 37° C., wells were washed out 3× with PBS, and fixed with 3.7% formaldehyde in PBS. Two fields-of-view were photographed at 4× magnification and all the cells counted were recorded for each well, done in triplicate. In the middle panel, Cos1 cells were transfected with an empty vector (Mock) or a vector encoding wild type human DPEP1, two days prior. One day prior, transfected cells were plated at near confluency in a 24-well plate. On the day of the experiment, freshly isolated human neutrophils were added to the wells at 1×10^5/mL, 0.5mL volume, with the indicated peptides at 100 uM. After 30 minutes at 37° C., wells were washed out 3× with culture media, then fixed in 3.7% formaldehyde in PBS. Five fields-of-view were photographed at 20× magnification and averaged for each well, done in triplicate. In the bottom panel, two days prior, 24-well plates were coated with Attachment Factor Solution (Cell Applications Inc. Cat#123-500). […]

[3] = test system: monocyte adhesion in kidney; experiment: Endotoxemia induced kidney inflammation, monocyte adhesion by multiphoton microscopy; format: in vivo, mouse; conditions: LysM gfp/gfp mice, LPS O111:B4 5 mg/kg i.v., 4 hours post LPS, peptide pretreatment
Experimental: HEK293T cells were transfected with pcDNA vector containing human DPEP1 via Lipofectamine 2000 as per manufacturer protocol. Transfected cells were positively selected for using geneticin resistance and subcloned to generate stably transfected DPEP1 clones. Human renal tubular epithelial cells (hTEC) were isolated and cultured from human kidney nephrectomies. For immunocytochemistry, cells were cultured on collagen coated glass coverslips and fixed by 4% paraformaldehyde. Fixed cells were incubated with biotinylated LSALT peptides (50 μM) with various modifications (glycine linkers and/or amidation) for 1 hour at 37° C. before PBS washes. Bound biotinylated peptide was detected via secondary streptavidin fluorescent conjugate (30 min. incubation at 37° C.) and washed with PBS. […] Bound biotinylated peptide was detected via secondary streptavidin fluorescent conjugate (30 min. incubation at 37° C.) and washed with PBS. Peptide binding was analyzed via flow cytometer. […] Inflammation was quantified by manual counting of monocyte adhesion in single microscopy fields (n=3-6 fields/group; *:p=0.02).
Plasma was separated for each sample and phosphoric acid added to stabilize peptide at each timepoint. Samples were assessed for LSALT and its' metabolites using LC/MS. […] Peptide binding was analyzed via flow cytometer. […]

DPEP1 [4] = target: T1, DPEP1; experiment: Static neutrophil adhesion assay to recombinant hDPEP1; format: cell-based; design: purchased Creative Biomart DPEP1-77H; conditions: human neutrophils, peptides at 0.45uM, 30 minutes
Experimental: as §1

[5] = test system: Cos 1 transfected cells (human DPEP1); experiment: Static neutrophil adhesion assay to DPEP1 transfected Cos1 cells; format: cell-based; conditions: human neutrophils, peptides at 100 uM, 30 minutes
Experimental: as §1

Sequence: KHMHWHPPALNT
phage binding to DPEP1 transfected cells (DPEP1 [1]): brightest binding to DPEP1 transfected cells

Sequence: HIPKSPIQIPII
neutrophil adhesion to LPS activated endothelial cells (HLMVEC) [2]: able to inhibit neutrophil adhesion

Sequence: GGGLSALTPSPSWLKYKAL [Peptide G2, tri-glycine LSALT (G2)]
endotoxemia induced kidney inflammation (monocyte adhesion) [3]: can inhibit endotoxemia induced kidney inflammation

neutrophil adhesion to recombinant hDPEP1 (DPEP1 [4]): able to inhibit neutrophil adhesion
Sequence: KHMHWHPPALNT [NeoH]
neutrophil adhesion to LPS activated endothelial cells (HLMVEC) [2]: able to inhibit neutrophil adhesion | neutrophil adhesion to DPEP1 transfected Cos 1 cells [5]: able to inhibit neutrophil adhesion
